US9085570B2, “Substituted benzamides and their uses” (The Board of Trustees of the Leland Stanford Junior …, priority 2010, dated 2015)
pIC50: −log10 of the molar value. Blank lines part the entries; values can stand above or below the compound they belong to.

Assays:
RCC4 = assay: XTT cell viability assay in RCC4 cells (VHL-deficient renal carcinoma); format: cell-based; details: four days drug exposure
Procedure: (§1) Cell Culture. RCC4 parental and RCC4 with VHL-reintroduced (RCC4/VHL), SN12C and SN12C-CSCG-VHL shRNA were maintained in DMEM supplemented with 10% FCS.
(§2) Cell Viability Assays. For 2,3-bis[2-methoxy-4-nitro-5-sulfophenyl]-2H-tetrazolium-5-carboxanilide (XTT) assays, five thousand cells were plated in 96-well plates. The next day, vehicle (DMSO) or drug was added by serial dilution. Four days later, media were aspirated, XTT solution (0.3 mg/ml of XTT (Sigma), […] N-methyl dibenxopyrazine methyl sulfate (Simga) in phenol red-free media) was added, and the plates were incubated at 37° C. for 1-2 hours. Metabolism of XTT was quantified by measuring the absorbance at 450 nm IC50s were calculated using linear interpolation. For clonogenic survival assays, three hundred cells were plated per 60 mm tissue culture dish. The cells were allowed to attach overnight and then treated with vehicle or drug for 14 days. Colonies were fixed and stained with crystal violet (0.1% crystal violet in 95% ethanol). All conditions were measured in triplicate and each experiment was done in duplicate or triplicate. To determine necrosis, cells were treated with drug for a given time point. Media and cells were collected, centrifugated, and resuspended in 0.4% trypan blue (Invitrogen). Live and dead cells were counted on a hematocytometer.
(§3) The designation A reflects an IC50 of <1 nM; B reflects an IC50 ranging from 1 to 20 nM; and C is an IC50 of >20 nM. The designation “a” reflects a ratio of RCC4/RCC-VHL+ranging from 1 to ≦10; “b” reflects from 10 to ≦100; “c” reflects a ratio of >100. Compounds I-29 have an IC50 value of ≦10 μM when tested in the above assay.

[1] = system: RCC4 with VHL-reintroduced (RCC4/VHL); assay: XTT cell viability assay in RCC4/VHL cells, selectivity ratio versus RCC4; format: cell-based; details: Ratio = IC50RCC4/VHL/IC50RCC4
Procedure: as §1, §2, §3

pIC50 (RCC4; Homo sapiens, 96 h): > 9.00
Compound: Cc1oc(-c2ccc(C(=O)NCc3cccnc3)cc2)nc1CS(=O)(=O)[C@@H]1CC[C@H](N2CCCCC2)C1 [Example 52, 4-[5-Methyl-4-([[(1R,3S)-3-(piperidin-1-yl)cyclopentane]sulfonyl]methyl)-1,3-oxazol-2-yl]-N-(pyridin-3-ylmethyl)benzamide]
Ratio (IC50 RCC4 Proficient VHL)/ IC50 RCC4 Deficient VHL) [1]: a (a ratio of RCC4/RCC-VHL+ranging from 1 to ≦10)

pIC50 (RCC4; Homo sapiens, 96 h): > 9.00
Compound: Cc1oc(-c2ccc(C(=O)NCc3cccnc3)cc2)nc1CS(=O)(=O)[C@H]1CC[C@H](N2CCCCC2)CC1 [Example 46, 4-[5-Methyl-4-([[4-(piperidin-1-yl)cyclohexane]sulfonyl]methyl)-1,3-oxazol-2-yl]-N-(pyridin-3-ylmethyl)benzamide]
Ratio (IC50 RCC4 Proficient VHL)/ IC50 RCC4 Deficient VHL) [1]: b (from 10 to ≦100)

pIC50 (RCC4; Homo sapiens, 96 h): < 7.70
Compound: Cc1oc(-c2ccc(C(=O)NCc3cccnc3)cc2)nc1CS(=O)(=O)[C@@H]1CC[C@H](N)C1 [Example 50, 4-[4-([[(1R,3S)-3-Aminocyclopentane]sulfonyl]methyl)-5-methyl-1,3-oxazol-2-yl]-N-(pyridin-3-ylmethyl)benzamide]
Ratio (IC50 RCC4 Proficient VHL)/ IC50 RCC4 Deficient VHL) [1]: b (from 10 to ≦100)

pIC50 (RCC4; Homo sapiens, 96 h): < 7.70
Compound: Cc1oc(-c2ccc(C(=O)NCc3cccnc3)cc2)nc1CS(=O)(=O)[C@H]1CC[C@H](N)C1 [Example 47, 4-[4-([[(1S,3S)-3-Aminocyclopentane]sulfonyl]methyl)-5-methyl-1,3-oxazol-2-yl]-N-(pyridin-3-ylmethyl)benzamide]
Ratio (IC50 RCC4 Proficient VHL)/ IC50 RCC4 Deficient VHL) [1]: b (from 10 to ≦100)

More lines, now with the values behind:

Compound: Cc1oc(-c2ccc(C(=O)NCc3cccnc3)cc2)nc1CS(=O)(=O)[C@H]1CC[C@H](N2CCCCC2)C1 [Example 49, 4-[5-Methyl-4-([[(1S,3S)-3-(piperidin-1-yl)cyclopentane]sulfonyl]methyl)-1,3-oxazol-2-yl]-N-(pyridin-3-ylmethyl)benzamide]
pIC50 (RCC4): > 9.00
Ratio (IC50 RCC4 Proficient VHL)/ IC50 RCC4 Deficient VHL) [1]: b (from 10 to ≦100)

Compound: Cc1oc(-c2ccc(C(=O)NCc3cccnc3)cc2)nc1CS(=O)(=O)C1CCN(CC(C)C)CC1 [Example 53, 4-(5-methyl-4-[[1-(2-methylpropyl)piperidine-4-sulfonyl]methyl]-1,3-oxazol-2-yl)-N-(pyridin-3-ylmethyl)benzamide]
pIC50 (RCC4; Homo sapiens, 96 h): > 9.00
Ratio (IC50 RCC4 Proficient VHL)/ IC50 RCC4 Deficient VHL) [1]: a (a ratio of RCC4/RCC-VHL+ranging from 1 to ≦10)

Compound: Cc1oc(-c2ccc(C(=O)NCc3cccnc3)cc2)nc1CS(=O)(=O)C1CCN(C)CC1 [Example 40, 4-(5-Methyl-4-((1-methylpiperidin-4-ylsulfonyl)methyl)oxazol-2-yl)-N-(pyridin-3-ylmethyl)benzamide]
pIC50 (RCC4; Homo sapiens, 96 h): > 9.00
Ratio (IC50 RCC4 Proficient VHL)/ IC50 RCC4 Deficient VHL) [1]: b (from 10 to ≦100)
